Data reported in patent US20220117266A1, “NICKEL CHELATION THERAPY” (priority 2019, published 2022).

Tested on: S. Typhimurium ATCC 700408
Test: Biofilm inhibition assay (crystal violet)
Format: cell-based, Salmonella enterica serovar Typhimurium
Conditions: 18 hours with DMG
Procedure: Biofilm inhibition assay. S. Typhimurium and K. pneumoniae cultures were adjusted to an optical density (OD600) of 0.1 in fresh LB broth. H. pylori culture was adjusted to an OD600 of 0.15 in brain heart infusion (BHI) supplemented with 0.4% β-cyclodextran. […] Plates containing S. Typhimurium and K. pneumoniae were incubated at 37° C. aerobically without shaking for 18 hours. Plates containing H. pylori were incubated at 37° C. microaerobically without shaking for 48 hours. After incubation with (Na2DMG) a crystal violet biofilm assay was performed as previously described with modifications (Kwasny et al. 2010. Current Protocols in Pharmacology 50:13A. 8.1-13A. 8.23). Briefly, supernatant was removed from the wells. Next, adherent cells were gently washed with phosphate-buffered saline (PBS) and allowed to air dry for 15 minutes. Cells were then heat fixed for one hour at 60° C. before staining with 0.5% crystal violet for 5 minutes. After the crystal violet was thoroughly washed from the wells with distilled deionized water, cells were air dried for 15 minutes. Acetic acid (33%) was then added to the wells to solubilize the crystal violet. The crystal violet-acetic acid solution was transferred to a clean 96 well plate and the OD600 was measured.

CC(=NO)C(C)=NO [DMG, dimethylglyoxime]
biofilm formation: able to inhibit biofilm formation
